Source: patent US8852883B2 (priority 2008, dated 2014)
Entries after “also recorded” stand apart in the source; their conditions may differ. Like-named read-outs stand apart in the source and are kept apart here. *: point of attachment. FITC = O=C1OC2(c3ccc(O)cc3Oc3cc(O)ccc32)c2ccc(NC(=S)*)cc21; Ahx = NCCCCCC(=O)O

Key:
[1] = test system: (virulent) B. anthracis-derived enzyme; type: biochemical, Bacillus anthracis
[2] = test system: B. thuringiensis-derived enzyme; type: biochemical
[3] = test system: (virulent) B. anthracis-derived enzyme; type: biochemical, Bacillus anthracis; remark: listed apart in the source
[4] = test system: B. thuringiensis; type: biochemical
[5] = test system: currently used micro-organisms; type: biochemical
[6] = test system: currently used micro-organisms; type: biochemical; remark: listed apart in the source
[7] = molecular target: T1, lysostaphin (Staphylococcus simulans, UniProt P10547); type: biochemical
T1 construct: purchased Sigma
T1 sequence (P10547 248-493, species assumed): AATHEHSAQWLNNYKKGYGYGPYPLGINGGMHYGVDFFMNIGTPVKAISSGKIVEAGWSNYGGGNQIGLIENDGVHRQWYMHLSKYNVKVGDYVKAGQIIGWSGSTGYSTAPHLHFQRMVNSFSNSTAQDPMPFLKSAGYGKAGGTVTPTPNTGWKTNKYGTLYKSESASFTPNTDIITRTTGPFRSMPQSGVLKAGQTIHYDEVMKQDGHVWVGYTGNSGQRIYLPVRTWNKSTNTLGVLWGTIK

[8] = test system: P. aeruginosa-derived enzyme; type: biochemical, Pseudomonas aeruginosa
[9] = test system: Collagenase Clostridium; type: biochemical, Clostridium sp.
[10] = test system: Collagenase Vibrio/Dispase; type: biochemical, Vibrio sp
[11] = test system: B. cereus cells; type: cell-based; details: for Location of fluorescent BikKam1 fragments (fluorescence microscopy): 0.01 M BikKam1
[12] = molecular target: Anthrax Lethal Factor (LF) (Bacillus anthracis, UniProt P15917); type: biochemical
Sequence of Anthrax Lethal Factor (LF) (P15917 34-809 limits assumed): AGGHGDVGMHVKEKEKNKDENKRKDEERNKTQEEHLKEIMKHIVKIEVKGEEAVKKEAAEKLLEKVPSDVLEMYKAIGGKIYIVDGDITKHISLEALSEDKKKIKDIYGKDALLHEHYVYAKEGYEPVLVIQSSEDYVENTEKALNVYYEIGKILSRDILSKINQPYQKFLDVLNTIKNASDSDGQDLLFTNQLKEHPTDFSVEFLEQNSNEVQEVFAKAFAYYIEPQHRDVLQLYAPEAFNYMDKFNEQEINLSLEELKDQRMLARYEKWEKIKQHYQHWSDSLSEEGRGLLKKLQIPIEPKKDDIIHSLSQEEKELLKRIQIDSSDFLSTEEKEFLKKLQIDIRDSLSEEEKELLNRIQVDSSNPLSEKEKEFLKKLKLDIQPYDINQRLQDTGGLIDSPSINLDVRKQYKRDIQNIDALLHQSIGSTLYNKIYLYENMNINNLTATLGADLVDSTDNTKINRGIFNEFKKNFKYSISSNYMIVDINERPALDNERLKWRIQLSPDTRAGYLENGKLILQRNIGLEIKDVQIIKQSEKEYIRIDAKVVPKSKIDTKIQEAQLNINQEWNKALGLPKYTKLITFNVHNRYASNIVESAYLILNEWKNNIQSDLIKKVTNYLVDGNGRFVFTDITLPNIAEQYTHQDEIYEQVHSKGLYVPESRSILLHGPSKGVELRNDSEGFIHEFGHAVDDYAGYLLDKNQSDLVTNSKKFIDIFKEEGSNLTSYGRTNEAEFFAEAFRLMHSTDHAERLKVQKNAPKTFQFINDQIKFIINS

[13] = molecular target: T2, Thermolysin (Bacillus thermoproteolyticus, UniProt P00800); type: biochemical
T2 construct: purchased Sigma
T2 sequence (P00800 233-548): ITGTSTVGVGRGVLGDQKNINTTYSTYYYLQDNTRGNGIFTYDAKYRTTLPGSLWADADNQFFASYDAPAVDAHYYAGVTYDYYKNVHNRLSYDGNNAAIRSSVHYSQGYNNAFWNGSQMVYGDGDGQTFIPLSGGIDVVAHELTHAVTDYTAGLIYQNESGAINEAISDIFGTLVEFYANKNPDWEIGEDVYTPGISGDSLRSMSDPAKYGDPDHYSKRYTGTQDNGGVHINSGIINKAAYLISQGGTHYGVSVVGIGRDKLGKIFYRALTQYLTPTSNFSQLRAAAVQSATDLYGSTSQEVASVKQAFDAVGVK

[14] = test system: enzymes derived from B. globigii; type: biochemical
[15] = test system: B. cereus; type: biochemical
[16] = test system: V. cholerae-derived enzyme; type: biochemical
[17] = test system: enzymes derived from E. herbicola; type: biochemical
[18] = test system: enzymes derived from C. botulinum; type: biochemical
[19] = test system: enzymes derived from V. cholerae; type: biochemical

FITC-Ahx-DLeu-DLeu-Lys-DABCYL [BikKam4]
Fluorescent signal of FRET: cleavage of substrate by B. anthracis-derived enzyme [1]: specifically cleaved
Fluorescent signal of FRET: cleavage of substrate by B. thuringiensis-derived enzyme [2]: specifically cleaved
Fluorescent signal of FRET: cleavage of substrate by B. anthracis-derived enzyme [3]: specifically cleaved

FITC-Ahx-Gly-DLeu-Lys-DABCYL [BikKam7]
Fluorescent signal of FRET: cleavage of substrate by B. anthracis-derived enzyme [1]: specifically cleaved
Fluorescent signal of FRET: cleavage of substrate by B. anthracis-derived enzyme [3]: specifically cleaved
Fluorescent signal of FRET: cleavage of substrate by B. thuringiensis [4]: weak signal

FITC-Ahx-Gly-DAla-Lys-DABCYL [BikKam8]
Enzyme activity on substrate with the currently used micro-organisms [5]: No significant enzyme activity
Enzyme activity on substrate with the currently used micro-organisms [6]: No significant enzyme activity

FITC-Ahx-Gly-Gly-Gly-DABCYL [BikKam22]
Cleavage of substrate by lysostaphin [7]: somewhat cleavage
Activity for P. aeruginosa compared to the other BikKam20-24 substrates [8]: slight increase in activity; also recorded: increase in cleavage
Fluorescent signal of FRET: cleavage of substrate by P. aeruginosa-derived enzyme [8]: specifically cleaved

FITC-Ahx-Gly-Gly-Gly-Gly-DABCYL ({FITC-Ahx}-GGGG-{DABCYL}) [BikKam21]
Cleavage of substrate by lysostaphin [7]: specifically cleaved
Activity for P. aeruginosa compared to the other BikKam20-24 substrates [8]: slight increase in activity

FITC-Ahx-Leu-DLeu-Lys-DABCYL [BikKam1]
FRET signal with purified collagenase (Clostridium sp.) [9]: No signal
FRET signal with purified collagenase (Vibrio sp) [10]: No signal
Fluorescent bacteria (fluorescence microscopy) ([11]; 0 hr): no fluorescent bacteria could be detected
Location of fluorescent BikKam1 fragments (fluorescence microscopy) ([11]; B. cereus, 2 hr incubation): could be detected in the cytoplasm
Location of fluorescent BikKam1 fragments (fluorescence microscopy) ([11]; B. cereus, 4 hr): besides in the cytoplasm also present in the cell wall at the new division sides
Location of fluorescent BikKam1 fragments (fluorescence microscopy) ([11]; B. cereus, 16 hr incubation): moved from the cytoplasm to the side walls
Fluorescent BikKam1 fragments in bacteria (fluorescence microscopy) ([11]; B. cereus, time not stated): Detection of fluorescent BikKam1 fragments in the cytoplasm
Fluorescent signal of FRET: cleavage of substrate by B. anthracis-derived enzyme [1]: specifically cleaved
Fluorescent signal of FRET: cleavage of substrate by B. thuringiensis-derived enzyme [2]: Some weak activity
Fluorescent signal of FRET: cleavage of substrate by B. anthracis-derived enzyme [3]: specifically cleaved
FRET signal with purified Lethal Factor [12]: No signal
FRET signal with purified thermolysin [13]: No signal
Fluorescent signal of FRET: cleavage of substrate by B. globigii [14]: not capable of cleaving

FITC-Ahx-DLeu-Leu-Lys-DABCYL [BikKam2]
Fluorescent signal of FRET: cleavage of substrate by B. anthracis-derived enzyme [1]: specifically cleaved
Fluorescent signal of FRET: cleavage of substrate by B. cereus [15]: weak signal
Fluorescent signal of FRET: cleavage of substrate by B. thuringiensis-derived enzyme [2]: specifically cleaved
Fluorescent signal of FRET: cleavage of substrate by B. anthracis-derived enzyme [3]: specifically cleaved
Fluorescent signal of FRET: cleavage of substrate by B. thuringiensis [4]: weak signal

FITC-Ahx-Leu-DVal-Lys-DABCYL [BikKam6]
Background with bacteria other than (virulent) B. anthracis [5]: hardly revealed any background
Background with other bacteria than (virulent) B. anthracis ([5]; at 60 min): Some weak background

FITC-Ahx-Gly-Gly-DABCYL [BikKam23]
Cleavage of substrate by lysostaphin [7]: not cleaved; also recorded: does not interact
Activity for P. aeruginosa compared to the other BikKam20-24 substrates [8]: lower than BikKam20-BikKam22; also recorded: significant decrease in activity; also recorded: lower activity
Fluorescent signal of FRET: cleavage of substrate by P. aeruginosa-derived enzyme [8]: specifically cleaved

FITC-Ahx-Leu-Leu-Lys-DABCYL [BikKam3]
Fluorescent signal of FRET: cleavage of substrate by V. cholerae-derived enzyme [16]: specifically cleaved
Fluorescent signal of FRET: cleavage of substrate by B. thuringiensis-derived enzyme [2]: specifically cleaved
Fluorescent signal of FRET: cleavage of substrate by E. herbicola [17]: show activity
Fluorescent signal of FRET: cleavage of substrate by C. botulinum [18]: show activity
Fluorescent signal of FRET: cleavage of substrate by V. cholerae [19]: show activity
Fluorescent signal of FRET: cleavage of substrate by B. globigii [14]: show activity

FITC-Ahx-Pro-Hyp-Lys-DABCYL [BikKam9]
Enzyme activity on substrate with the currently used micro-organisms [5]: No significant enzyme activity
Enzyme activity on substrate with the currently used micro-organisms [6]: No significant enzyme activity

FITC-Ahx-Leu-DLeu-Leu-Lys-DABCYL [BikKam5]
Fluorescent signal of FRET: cleavage of substrate by B. anthracis-derived enzyme [1]: specifically cleaved
Fluorescent signal of FRET: cleavage of substrate by B. thuringiensis-derived enzyme [2]: Some weak activity
Fluorescent signal of FRET: cleavage of substrate by B. anthracis-derived enzyme [3]: specifically cleaved
Fluorescent signal of FRET: cleavage of substrate by V. cholerae [19]: Some cleavage

FITC-Ahx-Gly-Gly-Gly-Gly-Gly-DABCYL [BikKam20]
Cleavage of substrate by lysostaphin [7]: specifically cleaved
Activity for P. aeruginosa compared to the other BikKam20-24 substrates [8]: increase in cleavage
Fluorescent signal of FRET: cleavage of substrate by P. aeruginosa-derived enzyme [8]: specifically cleaved

FITC-Ahx-Gly-DABCYL [BikKam24]
Enzyme activity on substrate with the currently used micro-organisms [6]: No significant enzyme activity
Cleavage of substrate by lysostaphin [7]: No significant enzyme activity
Fluorescent signal of FRET: cleavage of substrate by P. aeruginosa-derived enzyme [8]: no P. aeruginosa activity
